Experimental data reported in patent publication US8546371B2, “Nanoparticle formulated glycolipid antigens for immunotherapy” (Board of Regents, The University of Texas System, priority 2009, dated 2013).

Test system: NKT cells
Assay: Repeated in vivo NKT cell stimulation, serum IFN-γ by ELISA
Parameters: species or system C57BL/6 mice
Settings: for IFN-γ (serum): 1 μg αGalCer i.v., bled 24 hours after treatment, mean ± SD of three mice
Experimental: Nanoparticle containing 1 μg alpha-galactosylceramide was injected to C57BL6 mice, with non-conjugated nanoparticles as negative control. In parallel, we studied soluble form of alpha-galactosylceramide.
C57/BL6 mice were purchased from the Jackson Laboratory (Bar Arbor, Me.) and housed in M.D. Anderson Cancer Center animal facilities under standard pathogen free conditions abiding institutional guidelines. 6 weeks old C57BL/6 mice were used for all experiments. 3 mice per group were used for each experiment. 1 μg alpha-galactosylceramide, or nanoparticle formulated alpha-galactosylceramide in 200 μL PBS was intravenously injected (through tail vein) to each mouse. Mice were treated every 10 days for 3 times. 200 μL of PBS/1% DMSO was used as control.
Mice were bled at 24 hours after each drug treatment. Serum IFN-γ was measured by ELISA using a kit from BD Biosciences (San Jose, Calif.).

Compound: CCCCCCCCCCCCCCCCCCCCCCCCCC(=O)N[C@@H](CO[C@H]1O[C@H](CO)[C@H](O)[C@H](O)[C@H]1O)[C@H](O)[C@H](O)CCCCCCCCCCCCCC [αGalCer, Alpha-galactosylceramide]
- IFN-γ secretion upon repeated stimulation (anergy of NKT cells) (3 treatments every 10 days, i.v.): caused IFN-γ secretion only at the first treatment and failed to induce upon subsequent stimulations
- IFN-γ (serum) (x1 injection): 2601 ± 257 pg/mL
- IFN-γ (serum) (x2 injection (every 10 days)): 65 ± 2 pg/mL
- IFN-γ (serum) (x3 injection (every 10 days)): 40 ± 11 pg/mL
